Reference: patent US20180221433A1, “ANGIOTENSINS IN MUSCULAR DYSTROPHY” (University of Iowa Research Foundation, priority 2013, published 2018)
Positions of bridges follow the written chain, without caps; N, C: chain ends. No end group written: not given here.

What was measured:
Format in all cases: in vivo, mouse
Sgcd −/− mice [1] = test: H&E and Masson's Trichrome stain of quadriceps muscle for fibrosis, Example 4; conditions: osmotic minipump 8 weeks, TXA127 500, Pancyte 50, TXA301 50 μg/kg/day, vs saline, FIG. 10
Method: (§1) A total of 32 Sgcd −/− mice were randomly assigned to one of four treatment groups (n=8 in each): a saline group (vehicle) a TXA127 group, a Pancyte group, and a TXA301 group. The doses of Angiotensin (1-7) peptides administered was 500 μg/kg/day for TXA127, 50 μg/kg/day for Pancyte, and 50 μg/kg/day for TXA301. Osmotic minipumps containing the treatments were implanted in mice at 28-35 weeks of age, and the angiotensin (1-7) peptides were infused for 8 weeks. For the last three weeks of treatment, the mice were put in cages with running wheels attached to calculate the amount of voluntary exercise performed by each animal. Total number of wheel revolutions (distance ran) were collected daily. At the end of 8 weeks of treatment, quadriceps muscles were harvested from the mice for histopathological and oxidative stress analyses.
An H&E stain was used to examine the dystrophic morphology of the quadriceps muscles of the mice.

Sgcd −/− mice [2] = test: Voluntary running-wheel exercise in Sgcd −/− mice, Example 4; conditions: for amount of voluntary exercise performed (average running-wheel revolutions, weeks 6, 7 and 8) / amount of exercise performed (accumulated totals over the three week test period): osmotic minipump 8 weeks, vs saline; for amount of voluntary exercise performed (average running-wheel revolutions, weeks 6, 7 and 8): TXA127 500, Pancyte 50, TXA301 50 μg/kg/day, FIG. 8; for amount of exercise performed (accumulated totals over the three week test period): TXA127 500, TXA301 50 μg/kg/day, FIG. 9
Excerpt: In this Example, Sarcoglycan delta deficient mice (Sgcd−/−), an established mouse model of Limb Girdle Muscular Dystrophy-2F (LGMD-2F), was used to examine the effects of angiotensin (1-7) peptides on the progression of functional impairment and fibrosis in sufferers of the disease.
as §1

Sgcd −/− mice [3] = test: Radio-telemetry of blood pressure, heart rate and locomotor activity in Sgcd −/− mice
Excerpt: In this Example, Sgcd −/− mice, a known model of limb-girdle muscular dystrophy, were used to assess the effects of angiotensin (1-7) peptides on skeletal muscle fibrosis, blood pressure, heart rate, cardiac activity, baroreflex sensitivity, oxidative stress, AT1R receptor expression, and resting cardiac and vagal sympathetic tone. Sgcd −/− mice are missing a key component of the sarcoglycan complex, specifically, they are missing a link between the F-actin cytoskeleton and the extracellular matrix. This defect causes muscle wasting and weakness due to a reduction in muscle fiber integrity and dysregulation in cell signaling in muscle cells. It has been previously shown that this defect results in a reduction of locomotor activity and autonomic dysfunction at a young age. The autonomic dysfunction is thought to lead to cardiac dysfunction later in life.
(§2) To examine the effects of angiotensin (1-7) peptides on disruption of normal motor activity in Sgcd −/− mice, conscious, young (10-15 wks) Sgcd−/− and control C57BL6 mice were analyzed by radio-telemetry. Radio-telemeters were implanted into the aorta via the left carotid artery under ketamine-xylazine anesthesia when mice were 10 weeks of age. Following recovery, blood pressure, heart rate and locomotor activity were measured 24 hours/day. Blood pressure measurements were sampled at 2000 Hz for 1 hour periods to enable beat-to-beat measurements of systolic arterial pressure and pulse interval (PI). Baroreflex control of heart rate was assessed from spontaneous fluctuations in systolic blood pressure and pulse interval using known sequence techniques.
Osmotic minipumps (Alzet) were implanted with either Ang (1-7) (also referred to as “TXA127”) or vehicle in mice pups at 3 weeks of age, under ketamine-xylazine anesthesia.
(§3) Data were collected over 2-3 days, and 24 hour averages were calculated. Separate groups of control and Sgcd−/− mice were infused with Ang-(1-7) (300 ng/kg/min) for 8 weeks beginning at 3 weeks of age. Measurements were obtained in these mice using the same protocols as described above.
(§4) Data in this example are presented as ±SE. Results were analyzed by ANOVA, and paired and unpaired t-tests as appropriate, significance was determined at p<0.05.

Sgcd −/− mice [4] = test: Baroreflex sensitivity and cardiac/vasomotor autonomic tone in Sgcd −/− mice; conditions: Ang-(1-7) 300 ng/kg/min for 8 weeks
Method: as §2
Baroreflex sensitivity was calculated from spontaneous fluctuations in systolic blood pressure and pulse interval using the sequence technique. Specifically, baroreflex sensitivity was calculated as the average slope of sequences of 4 or more consecutive blood pressure pulses where the change in blood pressure and pulse interval are positively correlated (r^2>0.85).
Cardiac sympathetic tone and parasympathetic tone were calculated from heart rate responses to the β-adrenergic receptor blocker propranolol and the muscarinic cholinergic receptor blocker methylatropine, respectively. Specifically, resting cardiac sympathetic and parasympathetic (vagal) tone was estimated from heart rate responses to propranolol (1 μg/g, IP) and methylatropine (1 μg/g, IP), respectively. Vasomotor sympathetic tone was calculated from the decrease in mean arterial blood pressure in response to injection of the ganglionic blocker chlorisondamine (12 μg/g, IP).
as §3, §4

Sgcd −/− mice [5] = test: Masson Trichrome stain of skeletal muscle (quadriceps) for fibrosis, Example 2
Method: as §3
(§5) To assess skeletal muscle phenotypes, paraffin sections of skeletal muscle (quadriceps) were stained with Masson Trichrome to assess histopathology and fibrosis. Frozen sections of skeletal muscle were incubated with polyclonal anti-δ and anti-β sarcoglycan primary antibody, a nuclear stain, and Alexa Fluor 488. AT1R (Ang type 1 receptor) and Mas (Ang(1-7) receptor) were detected with rabbit anti-AT1R, and anti-Mas nuclear stains, and secondary antibody goat anti-rabbit IgG. Oxidative stress (O2.^−) was measured by dihydrocthidium (DHE) fluorescence.
as §4

[6] = tested on: angiotensin type 1 receptors (AT1R); test: AT1R expression in skeletal muscle sections (Alexa Fluor 488 staining); conditions: Sgcd −/− mice, Ang-(1-7) 300 ng/kg/min for 8 weeks; vs untreated Sgcd −/−; FIG. 6
Method: as §3, §5

Sgcd −/− mice [7] = test: Oxidative stress (superoxide) by dihydroethidium (DHE) fluorescence in skeletal muscle, Example 2; conditions: Ang-(1-7) 300 ng/kg/min for 8 weeks, vs untreated Sgcd −/−, FIG. 7
Method: as §3, §5, §4

Sgcd −/− mice [8] = test: Oxidative stress by DHE stain of quadriceps muscle, Example 4; conditions: TXA127 500 μg/kg/day for 8 weeks, vs saline, FIG. 11
Method: as §1
Dihydroethidium (DHE) was used to examine the degree of oxidative stress in treated Sgcd−/− mice. […] For quantification of degree of fibrosis, an average of six-sections of skeletal quadriceps muscle were obtained from each mouse. An intensity of fluorescence for each mouse was quantified using NIH ImageJ software and normalized to a percentage of the average fluorescence intensity measured in saline-treated Sgcd−/− mice.

Substance | fibrosis in skeletal muscle (quadriceps) (Sgcd −/− mice [1]) | amount of voluntary exercise performed (average running-wheel revolutions, weeks 6, 7 and 8) (Sgcd −/− mice [2]) | amount of exercise performed (accumulated totals over the three week test period) (Sgcd −/− mice [2]) | mean arterial blood pressure (Sgcd −/− mice [3]; Sgcd −/− mice, Ang-(1-7) 300 ng/kg/min by osmotic minipump for 8 weeks from 3 weeks of age, vs untreated Sgcd −/−, FIG. 2A) | 24 hour average heart rate (Sgcd −/− mice [3]; Sgcd −/− mice, Ang-(1-7) 300 ng/kg/min for 8 weeks, vs untreated Sgcd −/− controls, FIG. 2B) | 24 hour average locomotor activity (Sgcd −/− mice [3]; Sgcd −/− mice, Ang-(1-7) 300 ng/kg/min for 8 weeks, vs untreated Sgcd −/−, FIG. 3) | levels of locomotion compared with Control C57BL6 mice (Sgcd −/− mice [3]; treated Sgcd −/− mice vs Control C57BL6 mice, FIG. 3) | baroreflex sensitivity (decrease in Sgcd −/− mice) (Sgcd −/− mice [4]; FIG. 4A) | vasomotor sympathetic tone (increase in Sgcd −/− mice) (Sgcd −/− mice [4]; blood pressure response to chlorisondamine, FIG. 4D) | cardiac vagal tone (decrease in Sgcd −/− mice) (Sgcd −/− mice [4]; heart rate response to methylatropine, FIG. 4B) | cardiac sympathetic tone (increase in Sgcd −/− mice) (Sgcd −/− mice [4]; heart rate response to propranolol, FIG. 4C) | fibrosis of skeletal muscle (quadriceps) (Sgcd −/− mice [5]; Sgcd −/− mice, Ang-(1-7) 300 ng/kg/min for 8 weeks, vs untreated Sgcd −/−, FIG. 5) | levels of fibrosis compared with control C57BL6 mice (Sgcd −/− mice [5]; treated Sgcd −/− mice vs control C57BL6 mice, FIG. 5B) | AT1R receptor expression [6] | levels of superoxide (DHE fluorescence) (Sgcd −/− mice [7]) | fold improvement in exercise compared to saline control animals (Sgcd −/− mice [2]; TXA127 500 μg/kg/day, accumulated totals weeks 6-8, FIG. 9) | oxidative stress (DHE fluorescence intensity) (Sgcd −/− mice [8])
Asp^1-Arg^2-Val^3-Ser^4-Ile^5-His^6-Cys^7 [PanCyte] (DRVSIHC; bridge 4-7; also: cross link type between Ser4 and Cys7 not given here) [cyclic angiotensin (1-7) peptide analog] | no reduction in fibrosis was observed | – | – | – | – | – | – | – | – | – | – | – | – | – | – | – | –
Asp^1-Arg^2-Val^3-Ser^4-Ile^5-His^6-Cys^7 [TXA301] (DRVSIHC; bridge 4-7; also: cross link type between Ser4 and Cys7 not given here) [linear angiotensin (1-7) peptide] | some improvement | significant improvement | significant increases | – | – | – | – | – | – | – | – | – | – | – | – | – | –
Asp^1-Arg^2-Val^3-Tyr^4-Ile^5-His^6-Pro^7 [Ang (1-7)] | significantly reduced fibrosis | significant improvement | significant increases | not significantly affected | mildly decrease | reduction in locomotor activity was drastically reduced | did not vary significantly | essentially abrogated | essentially abrogated | essentially abrogated | essentially abrogated | markedly reduced | comparable to control C57BL6 mice | essentially abrogates the increase in AT1R | strongly attenuated | more than six fold improvement | significantly attenuated
